2 compounds from publication PMC5458211, “Mitochondrial VDAC1-based peptides: Attacking oncogenic properties in glioblastoma” (Oncotarget, 2017) can be followed below.

The test system of one test is U-87MG cells. Put plainly: Cell death in U-87MG by free and PLGA-encapsulated peptide. The following applies: 12 h, PI staining and FACS; Fig 7B. The test is classed as cell-based, human. As for the experimental part:
B. U-87MG cells (2×10^5) were incubated for 12 h with the indicated concentrations of DMSO, Retro-Tf-D-LP4 peptide (Pep), or Retro-Tf-D-LP4 encapsulated in PLGA nanoparticles (PLGA-Pep). Samples of Retro-Tf-D-LP4 encapsulated in PLGA nanoparticles were centrifuged (15000g, 5 min) to separate the supernatant (Sup), containing free peptide, and the pellet, containing encapsulated Retro-Tf-D-LP4 peptide. Cell death was analyzed by PI staining and FACS analysis. C. Graphical representation of the orthotopic animal experiment. […] E. Calculated tumor volumes after 20 (dark grey bars) and 29 (light grey bars) days post-treatment start. […]
100% DMSO and then diluted 20-fold with sterile DDW into three groups (6 animals/group) and treated every to reach a concentration of 25 mg/ml in a final DMSO third day with DMSO (1.44%), Retro-Tf-D-LP4 (10 concentration of 5%. PLGA (50 mg) was dissolved in mg/kg) or Retro-Tf-D-LP4 (10 mg/kg) encapsulated by acetone (1 ml). […] Tumor volume was analyzed using VivoQuant 2.10 10 ml of aqueous solution containing 1% PVA (w/v). […]
(Calbiochem, UK). […] Thirteen days post-inoculation, using various primary antibodies (sources and dilutions tumor volume was measured and calculated (100-130 as detailed in supplementary Table 2), followed by mm3) and mice were randomized into three groups (5 the appropriate HRP-conjugated secondary antibodies mice/group). […]

The subject of the next test is GSC markers. Put plainly: Expression of GSC markers in treated tumors (IHC, immunoblot). The note with it: treated tumors vs PBS/DMSO. The class given is in vivo, human U-87MG in nude mice. As for the experimental part: Sections were also hematoxylin-stained and visualized by microscopy. B. Tissue lysates obtained from controls and several TF-D-LP4-TTs were immunoblotted for Nestin, Sox2, NGFR, CD133, and Klf4. C. Quantitative analysis of immunoblots is shown (n=2-4). D. Immunoblot analysis of, Klf4, Sox2, Nestin and Musashi expression in U-87MG and G7 cell lines, using specific antibodies. E. Quantitative analysis of immunoblots. […] G. G7 (·) and U-87MG cells (○) (2×10^5) were incubated for 3 h with the DMSO (0.15%) or with the indicated concentration of Retro-Tf-D-LP4 peptide in serum-free growth medium at 37°C and then subjected to FITC-Annexin V/PI staining and flow cytometry analysis. H. Representative FACS analysis of DMSO- (left) and 5 μM of Retro-Tf-D-LP4- (right) treated G7 or U-87MG cells.
Formalin-fixed, paraffin-embedded sections of control and peptide-TTs were hematoxylin-eosin stained, probed with appropriate antibodies via IHC staining or immunoblotting of cells and tissue extracts.
PLGA encapsulation of the VDAC1-based minutes using an UltraMicroPump III (World Precision peptide Retro-Tf-D-LP4 Instruments, Sarasota, FL). After infusion, the needle was left in place for 1 minute before slow withdrawal. The burr
Retro-Tf-D-LP4-loaded PLGA complexes were hole was sealed using sterile bone wax, and the wound prepared by the solvent displacement method with some was closed with 5.0 nylon surgical suture. All surgical modifications, as previously reported [2 3]. Twenty procedures were performed under sterile conditions.
100% DMSO and then diluted 20-fold with sterile DDW into three groups (6 animals/group) and treated every to reach a concentration of 25 mg/ml in a final DMSO third day with DMSO (1.44%), Retro-Tf-D-LP4 (10 concentration of 5%. PLGA (50 mg) was dissolved in mg/kg) or Retro-Tf-D-LP4 (10 mg/kg) encapsulated by acetone (1 ml). Then, 105 µl of peptide were added to the PLGA. Mice were subjected to MRI (at days 20 and 29), PLGA-acetone solution. The resulting peptide-PLGA- sacrificed, and brains were excised and processed for acetone mixture was added drop-wise (0.5 ml/min) into IHC. Tumor volume was analyzed using VivoQuant 2.10 10 ml of aqueous solution containing 1% PVA (w/v). The software. These experimental protocols were approved by mixtures were stirred continuously at room temperature the Institutional Animal Care and Use Committee of Ben-until complete evaporation of the organic solvent. The Gurion University. nanoparticles were centrifuged at 15,000g (4 °C for 20 min) and the pellet was re-suspended in sterile DDW and Gel electrophoresis and immunoblotting washed two times. The resulting pellet was mixed with HBSS solution. Cells or tumor tissue were lysed using lysis buffer (50 mM Tris-HCl, pH 7.5, 150 mM NaCl, 1
Xenograft and intracranial-orthotopic mouse mM EDTA, 1.5 mM MgCl2, 10% glycerol, 1% Triton models X-100, supplemented with a protease inhibitor cocktail
(Calbiochem, UK). Cell lysates were then centrifuged at U-87MG glioblastoma cells (3 x106) were inoculated 600xg (10 min at 4°C) and samples (10-40 μg of protein) s.c. into the hind leg ﬂanks of athymic eight-week old were subjected to SDS-PAGE and immunoblotting male nude mice (Envigo). Thirteen days post-inoculation, using various primary antibodies (sources and dilutions tumor volume was measured and calculated (100-130 as detailed in supplementary Table 2), followed by mm3) and mice were randomized into three groups (5 the appropriate HRP-conjugated secondary antibodies mice/group). Each treatment substance was injected into (i.e., anti-mouse, anti-rabbit or anti-goat). Blots the established s,c. tumors using PBS containing 0.26% were developed using enhanced chemiluminescence DMSO or peptide in PBS, 0.26% DMSO/20 μM). The (Biological Industries). Band intensities were analyzed xenografts were injected 20 µl per tumor (2 points) every by densitometry using Multi Gauge software (Fujifilm) […]
two days. […]
(In general: A western blot detects proteins with antibodies after separation by electrophoresis.)

With `CC[C@H](C)[C@H](NC(=O)[C@H](Cc1ccc(O)cc1)NC(=O)[C@@H]1CCCN1C(=O)[C@H](CCCNC(=N)N)NC(=O)[C@H](Cc1c[nH]cn1)NC(=O)[C@H](CO)NC(=O)[C@H](Cc1c[nH]c2ccccc12)NC(=O)[C@@H](NC(=O)[C@H](Cc1c[nH]c2ccccc12)NC(=O)[C@H](CCC(=O)O)NC(=O)[C@@H](CCCCN)NC(=O)[C@@H](CCCCN)NC(=O)[C@@H](CC(C)C)NC(=O)[C@@H](CCC(=O)O)NC(=O)[C@H](NC(=O)[C@@H](C)NC(=O)[C@H](NC(=O)[C@@H](CC(N)=O)NC(=O)[C@@H](CC(C)C)NC(=O)[C@@H](C)NC(=O)[C@@H](Cc1c[nH]c2ccccc12)NC(=O)[C@H](NC(=O)[C@@H](C)NC(=O)CNC(=O)[C@@H](CC(N)=O)NC(=O)[C@@H](CO)NC(=O)[C@@H](CC(N)=O)NC(=O)[C@H](CCCCN)NC(=O)[C@H](Cc1c[nH]c2ccccc12)NC(=O)[C@@H](NC(=O)[C@H](Cc1c[nH]c2ccccc12)NC(=O)[C@@H](N)CCCCN)[C@@H](C)O)[C@H](C)O)C(C)C)[C@H](C)O)[C@@H](C)O)C(=O)N[C@@H](C)C(=O)N[C@@H](Cc1c[nH]cn1)C(=O)O` [Retro-Tf-D-LP4], in the test on U-87MG cells, the “cell death, U-87MG” value is given as “induces cell death”.
`CC[C@H](C)[C@H](NC(=O)[C@H](C)NC(=O)[C@@H](N)Cc1c[nH]cn1)C(=O)N[C@@H](Cc1ccc(O)cc1)C(=O)N1CCC[C@H]1C(=O)N[C@@H](CCCNC(=N)N)C(=O)N[C@@H](Cc1c[nH]cn1)C(=O)N[C@@H](CO)C(=O)N[C@@H](Cc1c[nH]c2ccccc12)C(=O)N[C@H](C(=O)N[C@@H](Cc1c[nH]c2ccccc12)C(=O)N[C@@H](CCC(=O)O)C(=O)N[C@H](CCCCN)C(=O)N[C@H](CCCCN)C(=O)N[C@H](CC(C)C)C(=O)N[C@H](CCC(=O)O)C(=O)N[C@@H](C(=O)N[C@H](C)C(=O)N[C@@H](C(=O)N[C@H](CC(N)=O)C(=O)N[C@H](CC(C)C)C(=O)N[C@H](C)C(=O)N[C@H](Cc1c[nH]c2ccccc12)C(=O)N[C@@H](C(=O)N[C@H](C)C(=O)NCC(=O)N[C@H](CC(N)=O)C(=O)N[C@H](CO)C(=O)N[C@H](CC(N)=O)C(=O)N[C@@H](CCCCN)C(=O)N[C@@H](Cc1c[nH]c2ccccc12)C(=O)N[C@H](C(=O)N[C@@H](Cc1c[nH]c2ccccc12)C(=O)N[C@@H](CCCCN)C(=O)O)[C@@H](C)O)[C@H](C)O)C(C)C)[C@H](C)O)[C@@H](C)O` [Tf-D-LP4]: in the test on GSC markers, the CD133 expression entry is “markedly lower”, the Klf4 expression result was “markedly lower”, the NGFR expression result is on record as “markedly lower” and the Nestin expression result is on record as “markedly lower”. For the same compound, in the test with GSC markers, the S100B expression entry is “markedly lower” and the Sox2 expression result is listed as “markedly lower”.
